Publication PMC3242765, “Inhibitors of Alphavirus Entry and Replication Identified with a Stable Chikungunya Replicon Cell Line and Virus-Based Assays” (PLoS ONE, 2011)
Several values for one entry are separate records, joined by “and”; a condition that tells them apart may be missing. Equal entries are not always repeated. Structures can show the parent of a compound that is named as a salt.

Experiments:
[1] = system: SFV-Rluc
[2] = system: CHIKV replicon; test: microbe, parasite or virus in culture; type: cell-based, Chikungunya virus (CHIKV)

Compound | SFV replication % left (surviving fraction, remaining percentage of SFV replication) [1] | CHIKV replicon % left [2]
COc1ccc2cc([C@H](C)C(=O)O)ccc2c1 [Naproxen] | 92.7% | 89.2%
COc1ccc(C(=O)Cc2c(CCN(C)C)cc3c(c2OC)OCO3)c(C(=O)O)c1OC [Narceine] | 118.3% | 70.7%
NC[C@@H]1O[C@H](O[C@H]2[C@@H](O)[C@H](O[C@@H]3[C@@H](O)[C@H](N)C[C@H](N)[C@H]3O[C@H]3O[C@H](CN)[C@@H](O)[C@H](O)[C@H]3N)O[C@@H]2CO)[C@H](N)[C@@H](O)[C@@H]1O.O=S(=O)(O)O [Neomycin sulfate] | 99.6% | 100.4%
NC(=O)c1cccnc1 [Nicotinamide] | 116.9% | 99.1%
O=C1CN=C(c2ccccc2)c2cc([N+](=O)[O-])ccc2N1 [Nitrazepam] | 46.0% | 98.8%
O=C1CN(/N=C/c2ccc([N+](=O)[O-])o2)C(=O)N1 [Nitrofurantoin] | 58.9% | 60.9%
NC(=O)N/N=C/c1ccc([N+](=O)[O-])o1 [Nitrofurazone] | 83.7% | 102.1%
CC(N)C(O)c1ccc(O)c(O)c1 (centres unmarked) [Nordefrin hydrochloride] | 118.0% | 104.2%
CC(Cc1ccc(O)c(O)c1)C(C)Cc1ccc(O)c(O)c1 (centres unmarked) [Nordihydroguaiaretic acid] | 35.6% | 28.3%
C#C[C@]1(O)CC[C@H]2[C@@H]3CCC4=CC(=O)CC[C@@H]4[C@H]3CC[C@@]21C [Norethindrone] | 107.8% | 97.1%
NCC(O)c1cccc(O)c1 (centres unmarked) [Norfenefrine] | 126.3% | 96.6%
CNCCC=C1c2ccccc2CCc2ccccc21 [Nortriptyline hydrochloride] | 5.3% | 29.1%
COc1ccc2c(c1OC)C(=O)O[C@@H]2[C@H]1c2c(cc3c(c2OC)OCO3)CCN1C [Noscapine] | 103.5% | 78.4%
NCC(O)c1ccc(O)cc1 (centres unmarked) [Octopamine hydrochloride] | 102.1% | 88.4%
CCCCCCCCOC(=O)c1cc(O)c(O)c(O)c1 [Octyl gallate] | 134.4% | 94.1%
C[C@@H]1O[C@@H](O[C@H]2C[C@@H](O)[C@]3(CO)[C@H]4[C@H](O)C[C@]5(C)[C@@H](C6=CC(=O)OC6)CC[C@]5(O)[C@@H]4CC[C@]3(O)C2)[C@H](O)[C@H](O)[C@H]1O [Ouabain] | 90.9% | 89.2%
O=C1Nc2ccc(Cl)cc2C(c2ccccc2)=NC1O (centres unmarked) [Oxazepam] | 79.1% | 80.3%

Compound | SFV replication % left (surviving fraction, remaining percentage of SFV replication) [1] | CHIKV replicon % left [2]
C=CCOc1ccccc1OCC(O)CNC(C)C (centres unmarked) [Oxprenolol hydrochloride] | 92.4% | 84.3%
CCCCC1C(=O)N(c2ccccc2)N(c2ccc(O)cc2)C1=O (centres unmarked) [Oxyphenbutazone] | 84.8% | 100.4%
COc1ccc(Cc2nccc3cc(OC)c(OC)cc23)cc1OC [Papaverine] | 99.3% | 78.2%
CC(C)(C)NC[C@H](O)COc1ccccc1C1CCCC1 [Penbutolol] | 45.0% | 39.4%
CCCC(C)C1(CC)C(=O)NC(=O)NC1=O (centres unmarked) [Pentobarbital] | 70.5% | 104.3%
CCOc1ccc(NC(C)=O)cc1 [Phenacetin] | 71.8% and 80.6% | 100.8% and 94.3%
CCC1(c2ccccc2)C(=O)NC(=O)NC1=O [Phenobarbital sodium] | 88.1% | 70.8%
CCC1(c2ccccc2)C(=O)NC(=O)NC1=O [Phenobarbital] | 58.6% | 43.2%
O=C(Oc1ccccc1)c1ccccc1O [Phenyl salicylate] | 118.2% | 94.3%
CCCCC1C(=O)N(c2ccccc2)N(c2ccccc2)C1=O [Phenylbutazone] | 96.7% | 100.5%
CNC(C)Cc1ccc(O)cc1.CNC(C)Cc1ccc(O)cc1.O=S(=O)(O)O (centres unmarked) [Pholedrine sulfate] | 92.8% | 81.5%
O=C(O)c1ccccc1C(=O)O [Phthalic acid] | 143.7% | 96.6%
CC(=O)NS(=O)(=O)c1ccc(NC(=O)c2ccccc2C(=O)O)cc1 [Phthalylsulfacetamide] | 110.6% | 85.4%
O=C(O)c1ccccc1C(=O)Nc1ccc(S(=O)(=O)Nc2nccs2)cc1 [Phthalylsulfathiazole] | 113.7% | 100.5%
CC(C)NCC(O)COc1cccc2[nH]ccc12 (centres unmarked) [Pindolol] | 86.2% | 72.1%
CC(=O)Nc1ccc(OCC(O)CNC(C)C)cc1 (centres unmarked) [Practolol] | 117.3% | 61.5%
C[C@]12C=CC(=O)C=C1CC[C@@H]1[C@@H]2[C@@H](O)C[C@@]2(C)[C@H]1CC[C@]2(O)C(=O)CO [Prednisolone] | 104.2% | 84.3%
